According to patent publication US20240424115A1, “LONG-ACTING INTERLEUKIN-15 RECEPTOR AGONISTS AND RELATED IMMUNOTHERAPEUTIC COMPOSITIONS AND METHODS” (Nektar Therapeutics, priority 2017, published 2024):

How the values were obtained:
[1] = Single dose PK study in non-human primates (plasma concentration); type: in vivo; details: cynomolgus monkeys
Protocol: Cynomolgus monkeys (n=2, 1 male and 1 female), were administered a single intravenous dose of Conjugate 1 at 10, 50 and 100 μg/kg. IL-15 was administered as a single intravenous dose at 50 μg/kg as a control. Plasma concentration of drug was determined at the indicated time points post injection (0.03, 0.25, 1, 4, 12, 24, 48, 72, 96, 120, 144, 168 hours).

[2] = tested on: NK cells, CD8 T cells, CD4 T cells; test: In vivo PD study in mice: lymphocyte cell numbers, proliferation and activation; design: species or system Balb/c mice
From the text: NK cells and their proliferation were defined using CD45+CD3-CD49b+ and CD45+CD3-CD49b+Ki67+ marker combinations. Following dosing, blood samples were acquired on the Fortessa flow cytometer running FACS DIVA software. Flowjo software was used for analysis and NK cell absolute values and Ki67% positivity within NK cells were plotted using Prism.
In mouse, four different maturation states of NK cells are defined by CD27 and CD11b expression. Once NK marker (CD49b+), natural activating NK receptor (NKp46+) and IL-15/IL-2RB (CD122+) triple positive cells were identified, immature (CD11b−CD27−), early (CD11b−CD27+), high effector (CD11b+CD27+) and terminal effector (CD11b+CD27−) NK cells were quantified by flow cytometry.
NK cells in various maturation states were quantified in mice receiving a single dose, or after the third dose of a q7dx3 schedule, of Conjugate 1 at 0.01, 0.03, 0.1, 0.3, 1.0, and 1.5 mg/kg as described above. Using flow cytometry, the NK population of interest was identified by CD49b, NKp46 and CD122 positivity. CD11b and CD27 were then used to further differentiate the NK population in immature (CD11b-CD27−), early NK (CD11b−CD27+), high effector (CD11b+CD27+) and terminal effector (CD11b+CD27−) subpopulations. Peripheral blood was run on the Fortessa flow cytometer and absolute values for each population were determined using counting beads during sample acquisition using BD FACS DIVA software. Flow cytometric analysis was conducted using Flowjo software and data plotted in Prism.
The surface expression of NKG2D was conducted using flow cytometric analysis of anti-NKG2D signal, expressed as mean fluorescence intensity (MFI) in NK cells. Similarly, the level of intracellular granzyme B was conducted using flow cytometry-based detection of anti-Granzyme B signal, also expressed as MFI in NK cells. Following detection of NKG2D and granzyme B signal using the Fortessa flow cytometer and FACS Diva software, analysis was conducted using Flowjo software. MFI values were plotted using Prism. […] Dose-dependent increases in both NK activation markers was observed following a single dose of Conjugate 1.
In mouse, CD8 T cells were defined as CD45+CD3+CD4−CD8+. Blood and spleen from mice were subject to immunophenotyping using the Fortessa flow cytometer and with analysis using Flowjo software. Absolute CD8 cell counts were plotted in Prism as shown in FIG. 14 (blood) and FIG. 24 (spleen). FIG. 14 and FIG. 24 illustrate the ability of Conjugate 1 to induce proliferation and a sustained increase in numbers of CD8 T-cells following a single i.v. administration in mice at each of the dosage amounts described above. The impact is most notable for the medium (0.1mg/kg, 0.3 mg/kg) and high (1.0 mg/kg, 1.5 mg/kg) dosage amounts.
In mouse, CD8 effector memory (Tem) and CD8 central memory (TCM) T cells were identified as CD45+CD3+CD4−CD8+CD44+CD62− and CD45+CD3+CD4−CD8+CD44+CD62L+. Proliferation of these memory populations was conducted using Ki-67 positivity. Following a single dose of Conjugate 1 or IL-15, blood and spleen were subject to immunophenotyping using the Fortessa flow cytometer, DIVA acquisition software and Flowjo analysis software. Graphs were plotted in Prism. […] Both effector and central memory populations proliferate in response to administration of Conjugate 1, an exemplary long acting IL-15 agonist.
NK-cell Granzyme B expression as a function of time was measured following treatment with Conjugate 1 at doses of 0.01 mg/kg, 0.03 mg/kg, 0.1 mg/kg, 0.3 mg/kg, 1 mg/kg, and 1.5 mg/kg. Whole blood was collected from 24 to 240 hours post-dose for immunophenotyping. Once red blood cells were lysed, white blood cells were labeled with viability dye and markers specific for CD45, CD3 and CD49b to identify live NK cells. Cells were then simultaneously fixed and permeabilized for intracellular Granzyme B staining. Stained blood was run on a Fortessa flow cytometer, acquired by DIVA software and analyzed using Flowjo software. […]

YAC-1 cells = type: cell-based
Protocol: NK cell-mediated cytotoxicity against target tumor cells was evaluated in vitro using a flow cytometry-based assay. NK cells were isolated from spleens of Balb/c mice using negative-selection magnetic cell isolation (Mouse NK cell enrichment kit, Stemcell Technologies) and used as effector cells. For in vitro studies, isolated NK cells were stimulated with Conjugate 1 at concentrations of 3000, 1000, 300, 30, 3, or 0 (unstimulated) ng/ml overnight in a humidified incubator at 37° C., 5% CO2 prior to use in the cytotoxicity assay. For in vivo studies, mice were dosed with 0.3 mg/kg Conjugate 1, and splenic NK cells were isolated 24, 48, and 72 h post-dose and used directly in the cytotoxicity assay.
YAC-1 T-cells labeled with PKH26 were used as target cells. To monitor NK cell cytotoxicity, NK and YAC-1 cells were co-cultured at various effector: target ratios (50:1, 25:1, and 12.5:1) for 4 hours at 37° C., 5% CO2, then stained with 7-AAD for 10 min to label dead cells. Cells were immediately analyzed using flow cytometry. Lysed target cells were identified as PKH26+7-AAD+.
Balb/c mice (n=2/group) were treated with Conjugate 1 (0.006, 0.03 or 0.3 mg/kg), IL-15 (1 mg/kg) or vehicle control. After treatment, spleens were isolated 24, 72, and 96 hours for NK cell isolation. […]

CT-26 cells = test: CT-26 lung metastasis model; details: for lung nodule inhibition: Example 19, one week apart
Protocol: At day 0, 6-8 week-old female Balb/c mice were inoculated with 1×10^5 mouse CT-26 cells by tail vein injection. On day 1, post 24 h of CT-26 cells being administered, mice were divided into ten groups. […] Each group was assigned one intervention as follows: vehicle, phosphate buffered saline (Group A); native IL-15 alone (Group B); Conjugate 2 at a dose of 0.03 mg/kg (Group C); Conjugate 2 at a dose of 0.1 mg/kg (Group D); Conjugate 2 at a dose of 0.3 mg/kg (Group E); Conjugate 2 at a dose of 1.0 mg/kg (Group F); Conjugate 2 at a dose of 3.0 mg/kg (Group G); for Conjugate 1: vehicle, phosphate buffered saline (Group H); Conjugate 1 at a dose of 0.03 mg/kg (Group I) and Conjugate 1 at a dose of 0.3 mg/kg (Group J). Animals were dosed at days 1, 5, and 10.
Post 13 days from the date of CT-26 tumor cells administration, mice were anesthetized, and blood and spleen cells were collected for further analysis of immunophenotype markers, while lungs were fixed for 24-48 h in Bouins solution containing picric acid and formaldehyde.
The number of lung tumor nodules were counted under a dissection per each lung and mean of lung nodules for each group was determined. The statistical significance was also obtained between the vehicle group vs intervention groups using unpaired students t test.
Balb/c mice received tail vein injection of 1×10^5 CT-26 colorectal carcinoma cells. The following day, mice (n=9/group) were treated weekly, twice, with Conjugate 1 (0.03 or 0.3 mg/kg) or vehicle control. Five days after the second injection, mice were humanely sacrificed and lung nodules were counted.
CT-26 mice (n=7-11/group) were injected with anti-asialo GM1 to deplete NK cells or two different controls (lgG or PBS), then injected with 1×10^5 CT-26 tumor cells. Mice were then treated with Conjugate 2 at 0.3 mg/kg dosed on days 1, 5 and 10 post tumor cell injection or vehicle control. Mice were sacrificed and lung nodules were counted three days after the last day of treatment.

[3] = mice, blood, single dose 0.3 mg/kg

IL-15: recombinant human IL-15 from E. coli, SEQ ID NO: 1, non-glycosylated, 12.9 kDa; unconjugated comparator
plasma levels following administration ([1]; single i.v. 50 μg/kg): rapidly cleared from the plasma
Ki67 and Granzyme B in CD49b cells, spleen ([2]; mice, single dose): does not

mono-mPEG-SBA40K-IL-15 [Conjugate 1]
half-life ([1]; single i.v. 100 μg/kg): approximately 30 hours
Granzyme B percent positivity in blood NK cells ([2]; Balb/c mice, 0.03 and 0.3 mg/kg (Example 18)): induced significant increases in NK Granzyme B expression
CD4 T cell numbers and % Ki-67 ([2]; Balb/c mice, single i.v. 0.03 or 0.3 mg/kg, compared to CD8 and NK cells): relatively small increase in numbers and % Ki-67 expression
percent of NK cells positive for Granzyme B expression ([2]; mice, 0.01-1.5 mg/kg, 24 to 240 hours (Example 15)): increases NK-cell Granzyme B expression
duration of increase in NK cell number ([2]; mice, all dose levels): at least 96 hours
duration of increase in % Ki67 ([2]; mice, all dose levels, compared to vehicle): at least 120 hours
increase in CD8 Tcm cell numbers [2, 3]: 37.9 X
increase in CD8 Tem cell numbers [2, 3]: 14.5 X
increase in CD8 cell numbers [2, 3]: 6.4 X
duration of increase of NK cells in all maturation sub-populations ([2]; mice, i.v., Example 11): at least 120 hours
duration of increase in NK cell number ([2]; mice, medium and high dose levels): at least 144 hours
duration of increase in % Ki67 ([2]; mice, medium dose ranges (0.1 mg/kg and 0.3 mg/kg)): at least 144 hours
increase in CD8 Tcm cell numbers ([2]; mice, repeated dosing Q7dx3): 183 X
increase in CD8 Tem cell numbers ([2]; mice, repeated dosing Q7dx3): 73.8 X
increase in CD8 cell numbers ([2]; mice, repeated dosing Q7dx3): 35.3 X
Ki67 and Granzyme B in CD49b cells, spleen ([2]; mice, single dose): dose-dependent increase in both Ki67 and Granzyme B
Ki-67 in effector and central memory CD8 T cells, blood ([2]; mice, single dose): dose-dependent increase in both effector and central memory CD8 T cells
dose levels inducing a significant increase in total CD8 T cells in the blood ([2]; mice, single dose): ≥ 0.03 mg/kg
NK cell numbers ([2]; mice, single dose 0.01 to 1.5 mg/kg): increase significantly above vehicle control at all dose levels
CD8 and CD8 memory T cell numbers at end of time course ([2]; mice, single dose 0.3-1.5 mg/kg): did not return to baseline at 240 hours post injection
NKG2D and Granzyme B expression (MFI) by NK cells ([2]; mice, single i.v. 0.03, 0.3, 1 mg/kg vs vehicle): sustained increase in both NKG2D and Granzyme B
time increased CD8 cell numbers were maintained compared to vehicle ([2]; mice, single iv injection): at least 240 hours
NK cytotoxicity (percent specific lysis of YAC-1 cells) after treatment of mice (YAC-1 cells): elevation of NK cytotoxicity superior in magnitude and duration
survival (CT-26 cells; 0.3 mg/kg, followed 32 days post tumor cell injection, vs vehicle): increased survival significantly
reduction in lung metastases in comparison to vehicle (CT-26 cells; Example 13, i.v. days 1, 5, 10, dose not stated): 85%
lung nodule inhibition (CT-26 cells; 0.03 mg/kg dosed twice): 40%
lung nodule inhibition (CT-26 cells; 0.3 mg/kg dosed twice): 80%
